The source made the active and inactive calls. No cut-off for these calls is given here.
Key:
A549 [1] = assay: Antiproliferative activity against human A549 cells assessed as reduction in cell viability incubated for 72 hrs by Celltiter-glo assay; type: functional, cell-based; details: A549, 72 h
[2] = (§1) Inhibition of human recombinant GAC K320A mutant (73 to 598 residues ) expressed in Escherichia coli BL21 (DE3) cells incubated for 10 mins by fluorometric assay
A549 [3] = assay: Antitumor activity against human A549 cells xenografted in Balb/c nude mouse assessed as tumor growth inhibition at 100 mg/kg, po administered once daily 24 days relative to control; type: functional; details: A549, 576 h, time 24 day, read-out: TGI
[4] = target: T1, Glutaminase kidney isoform, mitochondrial (Homo sapiens) (UniProt O94925); assay: Inhibition of GAC (unknown origin)
T1 sequence (whole entry): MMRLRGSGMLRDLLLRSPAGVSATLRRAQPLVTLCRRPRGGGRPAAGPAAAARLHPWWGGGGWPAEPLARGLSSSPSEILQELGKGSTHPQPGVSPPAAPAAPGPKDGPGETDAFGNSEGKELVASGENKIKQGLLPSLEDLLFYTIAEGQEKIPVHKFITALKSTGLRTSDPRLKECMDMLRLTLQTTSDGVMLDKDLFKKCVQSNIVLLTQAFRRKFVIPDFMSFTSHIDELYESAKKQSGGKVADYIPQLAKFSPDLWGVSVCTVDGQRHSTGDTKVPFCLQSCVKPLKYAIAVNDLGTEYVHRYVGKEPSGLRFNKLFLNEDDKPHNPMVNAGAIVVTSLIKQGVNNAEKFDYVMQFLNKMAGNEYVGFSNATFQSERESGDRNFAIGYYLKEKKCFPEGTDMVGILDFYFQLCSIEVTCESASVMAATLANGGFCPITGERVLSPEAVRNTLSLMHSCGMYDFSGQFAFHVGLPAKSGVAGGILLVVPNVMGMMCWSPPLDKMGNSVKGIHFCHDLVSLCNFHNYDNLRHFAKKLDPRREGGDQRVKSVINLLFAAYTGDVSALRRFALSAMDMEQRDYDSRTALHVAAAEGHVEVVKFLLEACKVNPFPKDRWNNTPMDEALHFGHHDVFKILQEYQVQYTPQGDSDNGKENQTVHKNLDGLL

Homo sapiens = species on record: Homo sapiens; assay: as §1
[5] = target: T1, Glutaminase kidney isoform, mitochondrial (Homo sapiens); assay: Inhibition of human GAC in A549 cells assessed as reduction in glutamate level at 100 to 1000 nM incubated for 16 hrs by colorimetric assay; type: cell-based; details: dose 100-1000 nM
A549 [6] = assay: Inhibition of colony formation in human A549 cells assessed as reduction of colony number measured after 4 days by crystal violet staining-based colony formation assay; type: functional, cell-based; details: dose 10-1000 nM, time 4.0 day
[7] = target: T1, Glutaminase kidney isoform, mitochondrial (Homo sapiens); assay: Inhibition of human GAC in A549 cells assessed as induction of ROS level incubated for 16 hrs by DCFH-DA staining based flow cytometric analysis; type: cell-based; details: dose 100-1000 nM

| SMILES | IC50 (A549 [1]) [nM] | EC50 [2] [nM] | also measured |
| --- | --- | --- | --- |
| N#Cc1cccc(CC(=O)Nc2nnc(N[C@@H]3CCN(c4cccnn4)C3)s2)c1 | 736 | 2.1 | – |
| O=C(Cc1cccc(P(=O)(O)O)c1)Nc1nnc(N[C@@H]2CCN(c3cccnn3)C2)s1 | > 10000 | 9.68 | – |
| O=C(Cc1cccc(C(=O)NCCF)c1)Nc1nnc(N[C@@H]2CCN(c3cccnn3)C2)s1 | 1170 | 3.13 | – |
| O=C(Cc1ccc(C(=O)O)cc1)Nc1nnc(N[C@@H]2CCN(c3cccnn3)C2)s1 | 4720 | 14.2 | – |
| O=C(Cc1ccccc1)Nc1nnc(N[C@@H]2CCN(c3cccnn3)C2)s1 | 103 | 3.42 | – |
| O=C(Cc1cccc(B(O)O)c1)Nc1nnc(N[C@@H]2CCN(c3cccnn3)C2)s1 | 1180 | 5.67 | – |
| O=C(Cc1cccc(C(=O)NC2CC(F)(F)C2)c1)Nc1nnc(N[C@@H]2CCN(c3cccnn3)C2)s1 | 1070 | 8 | – |
| O=C(Cc1cccc(F)c1)Nc1nnc(N[C@@H]2CCN(c3cccnn3)C2)s1 | 300 | 2.37 | – |
| Cc1ccccc1Oc1cccc(CC(=O)Nc2nnc(N[C@@H]3CCN(c4cccnn4)C3)s2)c1 | 37.1 | 37.5 | – |
| O=C(Cc1cccc(Cc2ccccc2)c1)Nc1nnc(N[C@@H]2CCN(c3cccnn3)C2)s1 | 13.1 | 9.3 | – |
| Cc1oc(=O)oc1COC(=O)c1cccc(CC(=O)Nc2nnc(N[C@@H]3CCN(c4cccnn4)C3)s2)c1 | 5470 | 3.8 | – |
| CN(C)C(=O)COC(=O)c1cccc(CC(=O)Nc2nnc(N[C@@H]3CCN(c4cccnn4)C3)s2)c1 | > 10000 | 3.15 | – |
| COC(=O)c1ccc(CC(=O)Nc2nnc(N[C@@H]3CCN(c4cccnn4)C3)s2)cc1 | 47.5 | 4.31 | – |
| O=C(Cc1cccc(OC(F)(F)F)c1)Nc1nnc(N[C@@H]2CCN(c3cccnn3)C2)s1 | 1.26 | 92.8 | – |
| O=C(Cc1cccc(-c2nnn[nH]2)c1)Nc1nnc(N[C@@H]2CCN(c3cccnn3)C2)s1 | > 10000 | 3.66 | – |
| O=C(Cc1cccc(O)c1)Nc1nnc(N[C@@H]2CCN(c3cccnn3)C2)s1 | 1080 | 1.7 | – |
| CCOP(=O)(OCC)c1cccc(CC(=O)Nc2nnc(N[C@@H]3CCN(c4cccnn4)C3)s2)c1 | 889 | 1.55 | – |
| CCOC(=O)OCOC(=O)c1cccc(CC(=O)Nc2nnc(N[C@@H]3CCN(c4cccnn4)C3)s2)c1 | 1010 | 3.74 | – |
| O=C(Cc1cccc(C(=O)NC2CCC(F)(F)CC2)c1)Nc1nnc(N[C@@H]2CCN(c3cccnn3)C2)s1 | 1060 | 4.26 | – |
| O=C(Cc1ccco1)Nc1nnc(N[C@@H]2CCN(c3cccnn3)C2)s1 | 308 | 7.45 | – |
| NC(=O)c1cccc(CC(=O)Nc2nnc(N[C@@H]3CCN(c4cccnn4)C3)s2)c1 | 368 | 2.16 | – |

| SMILES | IC50 (A549 [1]) [nM] | EC50 [2] [nM] | also measured |
| --- | --- | --- | --- |
| O=C(Cc1cccs1)Nc1nnc(N[C@@H]2CCN(c3cccnn3)C2)s1 | 222 | 5.18 | – |
| CN(C)C(=O)c1cccc(CC(=O)Nc2nnc(N[C@@H]3CCN(c4cccnn4)C3)s2)c1 | 1830 | 5.36 | – |
| O=C(Cc1cccc(OC(F)(F)F)c1)Nc1ccc(CCCCc2nnc(NC(=O)Cc3ccccn3)s2)nn1 [TELAGLENASTAT] | 18.8 | 16.4 | inhibition in vivo at 100 mg/kg (A549 [3]): 34.5% |
| O=C(Cc1cccc(C(=O)O)c1)Nc1nnc(N[C@@H]2CCN(c3cccnn3)C2)s1 | 732 | 1.89 | INH [4]: 1.48 nM; INH (Homo sapiens): 157 nM |
| O=C(Cc1ccc(CO)cc1)Nc1nnc(N[C@@H]2CCN(c3cccnn3)C2)s1 | 1710 | 12.4 | – |
| COc1cccc(CC(=O)Nc2nnc(N[C@@H]3CCN(c4cccnn4)C3)s2)c1 | 60.4 | 3.31 | – |
| CNC(=O)c1cccc(CC(=O)Nc2nnc(N[C@@H]3CCN(c4cccnn4)C3)s2)c1 | 108 | 4.54 | – |
| O=C(Cc1cccc(C(=O)OCC2CC2)c1)Nc1nnc(N[C@@H]2CCN(c3cccnn3)C2)s1 | 51.4 | 12.9 | – |
| O=C(Cc1cccnc1)Nc1nnc(N[C@@H]2CCN(c3cccnn3)C2)s1 | 498 | 9.01 | – |
| CC(C)OC(=O)c1cccc(CC(=O)Nc2nnc(N[C@@H]3CCN(c4cccnn4)C3)s2)c1 | 9.28 | 4.03 | inhibition [5]: Active; inhibition (A549 [6]): Dose-Dependent Effect; inhibition [7]: Dose-Dependent Effect |
| O=C(Cc1ccc2ccccc2c1)Nc1nnc(N[C@@H]2CCN(c3cccnn3)C2)s1 | 370 | 26.1 | – |
| CCOC(=O)c1cccc(CC(=O)Nc2nnc(N[C@@H]3CCN(c4cccnn4)C3)s2)c1 | 103 | 2.68 | – |
| CS(=O)(=O)NC(=O)c1cccc(CC(=O)Nc2nnc(N[C@@H]3CCN(c4cccnn4)C3)s2)c1 | > 10000 | 2.63 | – |
| O=C(Nc1nnc(N[C@@H]2CCN(c3cccnn3)C2)s1)C1(c2ccccc2)CC1 | 947 | > 1000 | – |
| O=C(Cc1cccc(C(F)(F)F)c1)Nc1nnc(N[C@@H]2CCN(c3cccnn3)C2)s1 | 60.4 | 6.52 | – |
| COC(=O)c1cccc(CC(=O)Nc2nnc(N[C@@H]3CCN(c4cccnn4)C3)s2)c1 | 12.9 | 0.793 | – |
| CC(=O)OCOC(=O)c1cccc(CC(=O)Nc2nnc(N[C@@H]3CCN(c4cccnn4)C3)s2)c1 | 1090 | 3.56 | – |
| O=C(CCc1ccccc1)Nc1nnc(N[C@@H]2CCN(c3cccnn3)C2)s1 | 744 | 68.3 | – |
| CO[C@H](C(=O)Nc1nnc(N[C@@H]2CCN(c3cccnn3)C2)s1)c1ccccc1 | 12.6 | 3.25 | – |
| CC1(C)OB(c2cccc(CC(=O)Nc3nnc(N[C@@H]4CCN(c5cccnn5)C4)s3)c2)OC1(C)C | 1260 | 8.2 | – |
| O=C(Cc1cccc(C(=O)OCC2CCC2)c1)Nc1nnc(N[C@@H]2CCN(c3cccnn3)C2)s1 | 13.8 | 9.89 | – |
